The text below walks through data of patent publication US20180325869A1, “TARGETING OF THE FORMYL-PEPTIDE RECEPTOR 2/LIPOXIN A4 RECEPTOR (FPR2/ALX) FOR TREATMENT OF HEART DISEASE” (BRISTOL-MYERS SQUIBB COMPANY, priority 2015, published 2018).

Data set [1] addresses T1, mFPR2/ALX (Mus musculus, UniProt O88536).
T1 construct: expressed in transfected cells; host or cells: CHO-A12
T1 sequence (O88536 1-351): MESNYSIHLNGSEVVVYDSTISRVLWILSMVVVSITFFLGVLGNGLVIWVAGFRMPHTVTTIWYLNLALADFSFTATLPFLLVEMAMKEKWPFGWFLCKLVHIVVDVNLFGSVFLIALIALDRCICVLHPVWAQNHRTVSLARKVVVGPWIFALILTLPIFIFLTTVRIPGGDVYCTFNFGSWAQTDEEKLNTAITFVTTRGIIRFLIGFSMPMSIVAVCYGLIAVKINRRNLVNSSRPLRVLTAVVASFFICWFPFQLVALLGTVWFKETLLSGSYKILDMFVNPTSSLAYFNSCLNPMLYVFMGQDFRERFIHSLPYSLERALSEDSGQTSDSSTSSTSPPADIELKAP
Kind of data set: cAMP assay in CHO-A12 cell line over-expressing mouse mFPR2. The data set is classed as cell-based. The settings on record: CHO-A12 cells over-expressing mFPR2; read-out: potency as activator of mFPR2/ALX. A general note: Changes in cAMP serve as a functional read-out for many G protein-coupled receptors.

Data set [2] has as its system mouse bio-gel elicited peritoneal macrophages. Kind of data set: Enhancement of phagocytosis in bio-gel elicited peritoneal macrophages. Type of data set: cell-based. The protocol: Enhancement of phagocytosis. Macrophages were elicited to the peritoneum of five C57BL6 mice by peritoneal injection of 1 ml of 1% Biogel in PBS (−/−) 4 days prior to harvest. Peritoneal exudates are harvested, combined and then filtered to remove Biogel beads. First, through a 70 um cell strainer followed by successively filtering through two 40 um cell strainers. The exudate is diluted with 1× PBS (−/−) to 50 ml and centrifuged at 300× g for 10 minutes at 4° C. The cell pellet is gently resuspended in 20-30 ml 1× PBS(+/+) and cells are counted using the Nexelcom Cellometer counter. Cell concentration is adjusted to 1,250,000 cells/ml in 1× PBS (+/+). 100 ul (125 k) cells are placed into each well of a 96-well Costar 3904 plate. The plates are centrifuged at 150× g for 30 seconds to promote adherence. […] Fluorescence signal from non-ingested Zymosan particles is quenched with 150 ul ice-cold 1:15 diluted Trypan Blue solution for 2 minutes and then aspirated to remove. Lastly, the plate is read on a SpectraMAX Gemini EM fluorescence plate reader in 150 ul of 1:50 diluted Trypan Blue. Plate Reader Settings=Bottom Read: Excitation 493 nm: Emission 525 nm: Cutoff 515 nm: Automix Off: Calibrate On: PMT=Auto: Column Priority: Reads/Well=20.

Data set [3] relates to human HL60 cell line. The data set is described as follows: Flipr calcium flux assay using dHL60 cell line. The data set is classed as cell-based. The settings on record: HL-60; neutrophil like human HL60 cell line; read-out: potency for increase of cytosolic Ca2+ levels. The protocol:
Flipr assay using dHL60 non-adherent cell line. HL60 cells were diluted to 1.5×10^5 cells/ml and were grown in culture medium containing 1.3% DMSO at 37C for 5 days. On day 6 cells were counted to make sure that cells viability was approx. 95%. The 1.2×10^7 cells were spin down and washed cells once with assay buffer. The supernatant was removed and cells were re-suspended in 12 ml buffer with fluo-4 AM loading dye and label cells at 37C for 30 min. Loading buffer: HBSS (invitrogen, cat 14075), 20 mM HEPES, 0.1% FAF-BSA, 15 ul of 0.025% pluronic F127 (Invitrogen, P3000 MP), 2.5 mM probenecid, 1.9 uM Fluo-4 AM (Invitrogen, F14201). After incubation cells were washed once with reaction buffer to remove the dye and were re-suspended at 1×10^6 cells/ml. Following wash, cells were plated in 100 ul/well in Poly-D-Lysine pre-coated 96 well assay plates. Assay plates were centrifuged at 1000 rpm for 10 min and then placed in the FLIPR to perform calcium flux assay.

The target in data set [4] is T2, mFPR1 receptor (Mus musculus, UniProt P33766).
T2 sequence (P33766 1-364): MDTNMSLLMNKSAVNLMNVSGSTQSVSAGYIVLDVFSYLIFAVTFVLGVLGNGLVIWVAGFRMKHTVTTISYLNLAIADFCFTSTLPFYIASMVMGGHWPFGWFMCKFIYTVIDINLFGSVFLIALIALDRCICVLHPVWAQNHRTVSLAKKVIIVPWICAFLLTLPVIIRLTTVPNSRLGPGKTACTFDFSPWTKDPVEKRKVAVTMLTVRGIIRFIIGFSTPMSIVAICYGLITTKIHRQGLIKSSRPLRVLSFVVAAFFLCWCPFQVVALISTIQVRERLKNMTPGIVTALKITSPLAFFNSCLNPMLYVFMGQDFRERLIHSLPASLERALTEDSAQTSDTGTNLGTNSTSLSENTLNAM
Kind of data set: Functional assay with mFPR1 receptor. The data set is classed as cell-based. The settings on record: read-out: function affinity with mFPR1 receptor.

Data set [5] has as its system human HL60 cell line. Kind of data set: HL-60 cell migration assay agonist mode. The data set is classed as cell-based. The settings on record: read-out: potency for stimulation of chemotaxis by itself. The protocol:
(§1) HL-60 cell culture and differentiation. The HL-60 cell line (ATCC, CCL-240, lot 60398411) was maintained in IMDM (Life Tech, cat 12440-053) medium supplemented with 20% fetal bovine serum, 50 U/ml penicillin, and 50 μg/ml streptomycin at 37° with 5% CO2. Cells were differentiated into the granulocyte lineage with DMSO; 2.5×10^5 cells/ml were incubated with 1.25% DMSO for 5 days.
Neutrophil and HL-60 cell migration assay agonist mode. After 5 day differentiation, cells were resuspended in phenol free RPMI (Invitrogen, cat 11835) with 0.2% fatty acid free BSA at a concentration of 3×10^7 cells/ml. The dHL-60 cells (10^5 in 100 μl) were added to the upper chamber of each HTS transwell-96well plate (Corning#3387). Migration was induced by placing chemoattractant in the bottom chamber and the dHL60 cells in the top chamber of the transwell plate. Cells were allowed to migrate for 120 min across the 5 micron filters at 37° with 5% CO2. Following migration, neutrophils or dHL-60 cells remaining in the transwell lower chamber (migrated fraction) were quantitated using the cell-titer-glo luminescence cell viability assay (Promega, G7571).

Data set [6] deals with T3, mFPR3 (Mus musculus, UniProt O08790).
T3 construct: expressed in transfected cells; host or cells: CHO-A12
T3 sequence (O08790 1-351): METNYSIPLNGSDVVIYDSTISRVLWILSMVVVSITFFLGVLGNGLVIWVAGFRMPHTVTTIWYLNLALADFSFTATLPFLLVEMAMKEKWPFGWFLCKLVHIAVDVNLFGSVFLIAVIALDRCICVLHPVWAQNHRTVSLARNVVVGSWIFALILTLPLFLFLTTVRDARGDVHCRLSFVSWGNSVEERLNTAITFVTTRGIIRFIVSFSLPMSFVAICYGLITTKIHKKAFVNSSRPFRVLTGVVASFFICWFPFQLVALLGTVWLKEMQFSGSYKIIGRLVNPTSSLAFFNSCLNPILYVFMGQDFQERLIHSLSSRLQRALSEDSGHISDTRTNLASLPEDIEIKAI
The data set is described as follows: cAMP assay in CHO-A12 cell line over-expressing mouse mFPR3. Particulars: CHO-A12 cells over-expressing mFPR3; read-out: activity against mFPR3. Type of data set: cell-based.

Data set [7] has as its system human HL60 cell line. The data set is described as follows: HL-60 cell migration assay antagonist mode (SAA-induced chemotaxis). The data set is classed as cell-based. Particulars: read-out: affinity for antagonism of chemotaxis induced by SAA. The protocol: as §1
Neutrophil and HL-60 cell migration assay antagonist mode. After 5 day differentiation, the cells were resuspended in phenol free RPMI (Invitrogen, cat 11835) with 0.2% fatty acid free BSA at a concentration of 3×10^7 cells/ml. The dHL-60 cells (10^5 in 100 μl) were pre-incubated for 15 minutes with varying concentrations of the […] at 37° with 5% CO2. Then 0.8uM of the recombinant serum amyloid A1 peptide (rSAA1, PeproTech, Cat#300-53) was added to the bottom chamber of each HTS transwell-96well plate (Coming#3387). Migration was induced by placing […] and the dHL60 cells mixture in the top chamber of the transwell plate. Cells were allowed to migrate for 120 min across the 5micron filters at 37° with 5% CO2. Following migration, neutrophils or dHL-60 cells remaining in the transwell lower chamber (migrated fraction) were quantitated using the cell-titer-glo luminescence cell viability assay (Promega, G7571).

Data set [8] has as its system mice. Kind of data set: Permanent coronary artery occlusion myocardial infarction model. Type of data set: in vivo. The protocol: Animal models. Permanent coronary artery occlusion was carried out in mice using a ligature placed around the left anterior descending artery to induce myocardial infarction. […] Mice subjected to thoracotomy but not infarcted were included as surgical “sham” controls. Mice were evaluated 28 days following myocardial infarction to assess structure/function relationships. Hearts were removed from mice to evaluate the passive mechanics of the myocardium. To do this, ex vivo pressure-volume relationships of the left ventricle were measured via inflation and deflation cycles of a balloon placed within the left ventricle of the excised heart. Two-dimensional strains of the myocardial scar were also measured to determine the compliance of infarcted tissue. Hearts were also processed histologically to measure left ventricular dimensions, infarct areas and infarct collagen composition.

In data set [9] the test system is mice. Kind of data set: Angiotensin II challenge myocardial fibrosis model. Type of data set: in vivo, mouse. Particulars: for decrease of left ventricular hydroxyproline content vs vehicle: p<0.05. The protocol:
To assess myocardial fibrosis, mice were challenged with angiotensin II to stimulate cardiac hypertrophy and left ventricular collagen deposition. Mice were administered angiotensin II using subcutaneously implanted osmotic mini-pumps (˜2 mg/kg/day) A separate group of mice were implanted with subcutaneous pumps containing saline (surgical “sham” group); these mice served as control for pump implantation surgery. […] Treatments lasted for 2-3 weeks, depending on the exact study design. At the end of treatment phase, hearts were removed from animals and evaluated for collagen levels/fibrosis using a standard colorimetric assay for myocardial hydroxyproline or by cross-sectional histology of the hearts.
Myocardial fibrosis was evaluated in the mouse with continuous angiotensin II challenge administered by subcutaneous osmotic mini-pump.

[10] abbreviates: mice, oral 1 and 10 mg/kg QD, stated for both models.

Some results are limits rather than exact numbers.

As for `CC(C)c1c(NC(=O)Nc2ccc(Cl)cc2)c(=O)n(-c2ccccc2)n1C` [Compound 1, 1-(4-chlorophenyl)-3-(5-isopropyl-1-methyl-3-oxo-2-phenyl-2,3-dihydro-1H-pyrazol-4-yl)urea], the EC50 in data set [1] was 20 nM; in data set [3], 50 nM; in [4], about 50 nM; in data set [5], 78 nM; in data set [6], over 10000 nM. Besides, in data set [2] (compound in picomolar range, depending on experimental conditions), the “enhancement of phagocytosis of fluorescently labeled zymosan vs untreated control cells” value is given as 250 to 60%. Also, the “enhancement of phagocytosis in knockout macrophages” value in data set [2] (macrophages from single mFPR2 and mFPR3 or double mFPR2/FPR3 knockout mice) was “no such enhancement”. Further, in data set [7], the IC50 is 189 nM. For the same compound, the “reduction of infarct area (as % of left ventricle area) vs vehicle” value in data set [8] (1 mg/kg, histology, p<0.05) was 44%; in data set [8] (10 mg/kg, histology, p<0.05), 49%. Further, the “reduction of left ventricular chamber area vs vehicle (histology)” value in data set [8] (1 mg/kg, p<0.05) is reported as 28%; in data set [8] (10 mg/kg, p<0.05), 30%. Further, in [8] (28 days post MI, 1 and 10 mg/kg QD oral), the “ex vivo left ventricle pressure-volume curves” value is “left shifted in a dose-dependent manner”. Besides, the “pressure-volume slopes (myocardial stiffness)” value in data set [8] (28 days post MI, ex vivo) was “greater than vehicle and similar to normal sham control mice”. The two-dimensional scar strains result in data set [8] (28 days post MI, ex vivo) is “reduced circumferential and longitudinal strains relative to vehicle treatment”. For the same compound, in [8] (high dose), the overall mortality entry is “decrease in overall mortality”. In addition, the “increased anterior left ventricular wall thickness at site of infarction vs vehicle” value in [8] (histology, p<0.05) was 45-65%. In [8] (setting [10]), the “tolerability throughout the in-life phase” value is “well tolerated”. Besides, the “untoward effects on the physiology of the mice” value in [8] (setting [10]) is “no untoward effects”. Also, the “decrease of left ventricular hydroxyproline content vs vehicle” value is reported as 83% in [9] (1 mg/kg, pre-treatment 24 h before angiotensin II, 2 weeks) and 75% in data set [9] (10 mg/kg, pre-treatment 24 h before angiotensin II, 2 weeks). Besides, the “interstitial collagen by histology of the left ventricle” value in [9] (pre-treatment 24 h before angiotensin II, 2 weeks) is given as “Comparable reductions”. The “hydroxyproline content and interstitial collagen levels by histology” value in data set [9] (treatment given at the time of angiotensin II challenge) was “comparable reductions”. Besides, the “reduction of interstitial fibrosis in the left ventricle vs vehicle” value in [9] (treatment started after 3 days of angiotensin II, 2.5 weeks, histology, p<0.001) is reported as about 74%.
